Test results as given in paper PMC4900628, “Critical Evaluation of P2X7 Receptor Antagonists in Selected Seizure Models” (PLoS ONE, 2016).

How the values were obtained:
[1] = test system: PTZ-induced generalized clonic seizures; assay: Pentylenetetrazol seizure threshold test (PTZ-T); assay type: in vivo; details: for Cases of death (within 30 min): n=12; for Latency to the first gen. Clonus: mean ± SEM
Experimental: Unrestrained mice, placed in separate full-view Plexiglas cages, were injected with the convulsant drug PTZ, a non-competitive GABAA receptor antagonist, at a dose of 87 mg/kg s.c. in the neck and the appearance of the first generalized clonus (repeated clonic seizures of the fore- and hindlimbs lasting ≥3 s with an accompanying loss of righting reflex) was recorded during individual observation for 30 min (see [69]). […] Group sizes of 12 mice were used in all experiments. Control groups, which received vehicle, were tested together with the compound-treated group on the same experimental day. The number of animals in the group with a generalized clonic seizure and the latency time to its onset were analysed for statistical significance. In the absence of seizures within 30 min, the latency was taken as 1800 s.
For the seizure tests (MES-T, PTZ-T, PTZ-kindling), BBG and TIIAS was dissolved in polyethylene glycol (PEG BioUltra, 400, Sigma-Aldrich), diluted to 20% with aqua (aqua ad iniectabilia, Braun, Melsungen, Germany). AFC was solubilized in ≥97% N,N-dimethylacetamide (DMA, Sigma-Aldrich), vortexed and diluted with 45% 2-hydroxypropyl-ß-cyclodextrin (ß-CD, Sigma-Aldrich) (final ratio of the vehicle 1:9). JNJ-47965567 was solubilized in two equivalents of 1N HCl, vortexed and sonicated (until the compound was mostly diluted) and then 30% of sulfobutylether-ß-cyclodextrin (SBE-ß-CD, Toronto Res. Chemicals, Toronto, Canada) was slowly added. The pH was adjusted with 1N NaOH (similar amount of NaOH as HCl), all with continuous stirring. PTZ was dissolved in 0.9% NaCl-solution, carbamazepine, ethosuximide and Ca-valproate were administered in a 2% (w/v) suspension of hydroxyethylcellulose. The drug solutions or suspensions were prepared immediately before use; all doses refer to the salts. Animals in the control group received equivalent volumes of the vehicle (in mice always 10 ml/kg, in rats 1 ml/kg [JNJ], 3 ml/kg [AFC] or 4 ml/kg [BBG, TIIAS], depending on the solubility of the different compounds). Doses and peak time effects were selected on the basis of effective doses from corresponding in vivo studies in the literature: BBG (e.g.), tanshinone IIA (e.g.) and from manufacturer’s experimental data: AFC, JNJ (see, [80]).
Data were analysed using SigmaPlot (vers. 12.0, Systat Software, Erkrath, Germany) and SPSS (IBM SPSS Statistics 20, Ehningen, Germany), respectively. Results are expressed as mean ± SEM. In the fluorometric Ca^2+ assays, concentration-response curves were fitted by using a 4-parameter logistic function (Hill slope, Emin, Emax, IC50). […] In the MES-T, the current intensity inducing tonic hindlimb extensions in 50% of the mice (CC50 values with confidence limits for 95% probability) and the statistical significance was calculated using Probit analysis (SPSS). In the case of multiple comparisons between different groups α-correction was performed so that only differences with a P value of < 0.01 were considered significant. In the PTZ-T, the number of animals in the group with clonic seizures and the latency time were analysed using Fisher's exact probability test and the Mann-Whitney rank sum test, respectively. For multiple comparisons of the latency time a one-way ANOVA with the Holm-Sidak post hoc test was used. The influence of AFC on the plasma and brain concentrations of the antiepileptic drugs was statistical compared using the same procedure. In the PTZ-kindling model, the mean seizure stage within a group was calculated in relation to the number of PTZ-injections. Statistical comparison between vehicle- and compound-treated groups in this model was performed with two-way repeated measures ANOVA, followed by the Holm-Sidak post hoc test. The mean number of PTZ-injections needed to produce the first generalized seizure (≥ stage 3 convulsions) in the vehicle- versus compound-treated groups was statistically compared using a Mann-Whitney rank sum test.

PTZ-induced kindling = PTZ-induced kindling development; assay type: in vivo, rats
Experimental: For PTZ-kindling, the initial sub-convulsive dose of PTZ (35 mg/kg) was injected i.p. once every 48 h (on Monday, Wednesday, and Friday, three times a week). After vehicle or vehicle/compound pre-treatment, PTZ was injected and the rats were individually observed for 30 min. Behavioural seizure responses were scored according to a defined graduation from stage 0 to stage 5. […] Rats received 20 successive PTZ-kindling stimulations. After an 8-day treatment-free interval, the animals were re-tested with PTZ (21st-25th injection) and vehicle pre-treatment without the compounds. […] Additional care was taken the hours following generalized tonic-clonic seizures and status epilepticus by providing the animals with soft food pellets and tap water if required. All efforts were made to minimize suffering. […] Chemicals, Toronto, Canada) was slowly added. The pH was adjusted with 1N NaOH (similar amount of NaOH as HCl), all with continuous stirring. […] The drug solutions or suspensions were prepared immediately before use; all doses refer to the salts. Animals in the control group received equivalent volumes of the vehicle (in mice always 10 ml/kg, in rats 1 ml/kg [JNJ], 3 ml/kg [AFC] or 4 ml/kg [BBG, TIIAS], depending on the solubility of the different compounds). Doses and peak time effects were selected on the basis of effective doses from corresponding in vivo studies in the literature: BBG (e.g.), tanshinone IIA (e.g.) and from manufacturer's experimental data: AFC, JNJ (see, [80]). Data were analysed using SigmaPlot (vers. 12.0, Systat Software, Erkrath, Germany) and SPSS (IBM SPSS Statistics 20, […], Germany), respectively. Results are expressed as mean ± SEM. […] In the MES-T, the current intensity inducing tonic hindlimb extensions in 50% of the mice (CC50 values with confidence limits for 95% probability) and the statistical significance was calculated using Probit analysis (SPSS). […] In the PTZ-T, the number of animals in the group with clonic seizures and the latency time were analysed using Fisher's exact probability test and the Mann-Whitney rank sum test, respectively. For multiple comparisons of the latency time a one-way ANOVA with the Holm-Sidak post hoc test was used. The influence of AFC on the plasma and brain concentrations of the antiepileptic drugs was statistical compared using the same procedure. In the PTZ-kindling model, the mean seizure stage within a group was calculated in relation to the number of PTZ-injections. Statistical comparison between vehicle- and compound-treated groups in this model was performed with two-way repeated measures ANOVA, followed by the Holm-Sidak post hoc test. The mean number of PTZ-injections needed to produce the first generalized seizure (≥ stage 3 convulsions) in the vehicle- versus compound-treated groups was statistically compared using a Mann-Whitney rank sum test. In fully kindled rats, the calculated mean seizure stage within a group after vehicle- and compound-treatment were compared using a paired t-test. P < 0.05 was the accepted minimum level of significance.

CCOc1ccc(Nc2ccc(/C(=C3C=C/C(=[N+](/CC)Cc4cccc(S(=O)(=O)[O-])c4)C=C/3C)c3ccc(N(CC)Cc4cccc(S(=O)(=O)O)c4)cc3C)cc2)cc1 [Brilliant Blue G]
# of mice/ with seizure ([1]; 50 mg/kg i.p. 45 min before PTZ 87 mg/kg s.c.): 12/10 | Cases of death (within 30 min) ([1]; mice, 50 mg/kg i.p. 45 min before PTZ 87 mg/kg s.c.): 2 | Latency to the first gen. Clonus ([1]; mice, 50 mg/kg i.p. 45 min before PTZ 87 mg/kg s.c., P < 0.05): 13.91 ± 2.38 min | Latency to the first gen. clonus (% of control) ([1]; mice, 50 mg/kg i.p. 45 min before PTZ 87 mg/kg s.c., vehicle 6.77 ± 2.23 min): 205.5 ± 35.2% | latency to the onset of the first clonic seizures at higher doses ([1]; mice, compounds alone, PTZ 87 mg/kg s.c.): tended to increase the latency | mean seizure stages after 8-day treatment-free interval (21st-25th PTZ-injection, vehicle only) (PTZ-induced kindling; rats formerly treated with TIIAS 30, BBG 50, AFC 30 mg/kg i.p. or JNJ 15 mg/kg s.c.): no differences of the mean seizure stages | mean number of PTZ-injections needed to produce the first generalized seizure (≥ stage 3) vs vehicle (PTZ-induced kindling; rats, TIIAS 30, BBG 50, AFC 30 mg/kg i.p., JNJ 15 mg/kg s.c.): required significantly more PTZ-injections | effect on PTZ-kindling development (mean seizure stages) (PTZ-induced kindling; rats, TIIAS 30 and BBG 50 mg/kg i.p. 45 min, AFC 30 mg/kg i.p. 45 min, JNJ 15 mg/kg s.c. 30 min before each PTZ 35 mg/kg i.p., every 48 h, 20 injections): moderate, yet significant retarding effect on kindling development

CCC1(C)CC(=O)NC1=O (stereo not drawn) [Ethosuximide, ethosuximide]
Cases of death (within 30 min) ([1]; mice, series AFC-5128 25 mg/kg and/or ethosuximide 100 mg/kg i.p. 30 min before PTZ 87 mg/kg s.c.): 1 | Cases of death (within 30 min) ([1]; mice, series AFC-5128 50 mg/kg and/or ethosuximide 100 mg/kg i.p. 30 min before PTZ 87 mg/kg s.c.): 1 | Cases of death (within 30 min) ([1]; mice, series JNJ-47965567 15 mg/kg and/or ethosuximide 100 mg/kg i.p. 30 min before PTZ 87 mg/kg s.c.): 0 | Cases of death (within 30 min) ([1]; mice, series JNJ-47965567 30 mg/kg and/or ethosuximide 100 mg/kg i.p. 30 min before PTZ 87 mg/kg s.c.): 1 | Latency to the first gen. Clonus (% control) ([1]; mice, series AFC-5128 25 mg/kg and/or ethosuximide 100 mg/kg i.p. 30 min before PTZ, control 4.53 ± 0.56 min): 312.6 ± 65.8% | Latency to the first gen. Clonus ([1]; mice, series AFC-5128 25 mg/kg and/or ethosuximide 100 mg/kg, all i.p. 30 min before PTZ 87 mg/kg s.c.): 14.16 ± 2.98 min | Latency to the first gen. Clonus (% control) ([1]; mice, series AFC-5128 50 mg/kg and/or ethosuximide 100 mg/kg i.p. 30 min before PTZ, control 10.83 ± 2.67 min): 200.6 ± 27.0% | Latency to the first gen. Clonus ([1]; mice, series AFC-5128 50 mg/kg and/or ethosuximide 100 mg/kg, all i.p. 30 min before PTZ 87 mg/kg s.c.): 21.72 ± 3.03 min | Latency to the first gen. Clonus (% control) ([1]; mice, series JNJ-47965567 15 mg/kg and/or ethosuximide 100 mg/kg i.p. 30 min before PTZ, control 4.74 ± 0.64 min): 244.3 ± 75.3% | Latency to the first gen. Clonus ([1]; mice, series JNJ-47965567 15 mg/kg and/or ethosuximide 100 mg/kg, all i.p. 30 min before PTZ 87 mg/kg s.c.): 11.58 ± 3.57 min | Latency to the first gen. Clonus (% control) ([1]; mice, series JNJ-47965567 30 mg/kg and/or ethosuximide 100 mg/kg i.p. 30 min before PTZ, control 6.14 ± 1.34 min): 209.0 ± 51.1% | Latency to the first gen. Clonus ([1]; mice, series JNJ-47965567 30 mg/kg and/or ethosuximide 100 mg/kg, all i.p. 30 min before PTZ 87 mg/kg s.c.): 12.83 ± 3.14 min | # of mice/ with seizures ([1]; series AFC-5128 25 mg/kg and/or ethosuximide 100 mg/kg, all i.p. 30 min before PTZ 87 mg/kg s.c.): 12/8^+ | # of mice/ with seizures ([1]; series AFC-5128 50 mg/kg and/or ethosuximide 100 mg/kg, all i.p. 30 min before PTZ 87 mg/kg s.c.): 12/7^+ | # of mice/ with seizures ([1]; series JNJ-47965567 15 mg/kg and/or ethosuximide 100 mg/kg, all i.p. 30 min before PTZ 87 mg/kg s.c.): 12/8^+ | # of mice/ with seizures ([1]; series JNJ-47965567 30 mg/kg and/or ethosuximide 100 mg/kg, all i.p. 30 min before PTZ 87 mg/kg s.c.): 12/8^+
